Results from US20250382251A1, “ALDEHYDE COMPOSITION” (MITSUBISHI GAS CHEMICAL COMPANY, INC., priority 2022, published 2025).

Legend:
[1] = Evaluation of threshold of smell; conditions: diluted with dipropylene glycol, 10 to 0.001 ppm; lower limit concentration at which the smell can be identified
Bhas42 cells = assay: Carcinogenicity prediction test (transformation test, OECD 231GD); type: cell-based; conditions: in vitro transformation test using Bhas42 cells, negative or positive
Experimental: Using the aldehyde compositions obtained in Examples and Lilial (3-(p-tert-butylphenyl)-2-methylpropanal), a transformation test (an in vitro carcinogenicity prediction test using Bhas42 cells) was performed based on OECD 231GD to determine whether the carcinogenicity was negative or positive. When the result of this test is negative, it is predicted that there is no possibility of causing carcinogenicity, and safety is high.

For `CC(C=O)Cc1ccc(C(C)(C)C)cc1` (centres unmarked) [Comparative Example 2, 3-(p-tert-butylphenyl)-2-methylpropanal], the “Threshold of smell (ppm)” value [1] was 1 ppm and the Carcinogenicity prediction test (Bhas42 cells) was “Positive”.
